In ChEMBL document CHEMBL1124295, “Synthesis and oral antiallergic activity of carboxylic acids derived from imidazo[2,1-c][1,4]benzoxazines, imidazo[1,2-a]quinolines, imidazo[1,2-a]quinoxalines, imidazo[1,2-a]quinoxalinones, pyrrolo[1,2-a]quinoxalinones, pyrrolo[2,3-a]quinoxalinones, and imidazo[2,1-b]benzothiazoles” (1988) one finds ED50 and inhibition in vivo data, which are given here for 34 compounds.

In assay [1] the test system is Rattus norvegicus. The assay can be described thus: Inhibition of the IgE-mediated passive cutaneous anaphylaxis (PCA) reaction in rat after intravenous administration; NA means inactive at 1 and 10 mg/Kg. Format: functional, organism-based.
Assay [2] deals with Rattus norvegicus. The assay can be described thus: Inhibition of the IgE-mediated passive cutaneous anaphylaxis (PCA) reaction in rat after oral administration; NA means inactive at 1 and 10 mg/Kg. Format: functional, organism-based.
Assay [3] concerns Rattus norvegicus. Briefly: Inhibition of the IgE-mediated passive cutaneous anaphylaxis (PCA) reaction in rat after oral administration; Range 0.025-0.282. It is filed as functional.
Assay [4] has as its system Rattus norvegicus. The assay can be described thus: Inhibition of the IgE-mediated passive cutaneous anaphylaxis (PCA) reaction in rat after intravenous administration; Range 0.005-0.033. Format: functional.
Assay [5] deals with Rattus norvegicus. Briefly: Inhibition of the IgE-mediated passive cutaneous anaphylaxis (PCA) reaction in rat after intravenous administration; Inactive at 1 and 10 mg/kg. The arrangement: dose 10 mg/kg. It is filed as functional, organism-based.
Assay [6] concerns Rattus norvegicus. Briefly: Inhibition of the IgE-mediated passive cutaneous anaphylaxis (PCA) reaction in rat after oral administration; Inactive at 1 and 10 mg/kg. Also on record: dose 10 mg/kg. It is filed as functional, organism-based.
The test system of assay [7] is Rattus norvegicus. Briefly: Inhibition of the IgE-mediated passive cutaneous anaphylaxis (PCA) reaction in rat after intravenous administration; Range 0.91-3.86. Format: functional.
For assay [8], the system named is Rattus norvegicus. The assay can be described thus: Inhibition of the IgE-mediated passive cutaneous anaphylaxis (PCA) reaction in rat after oral administration; Range 4.38-21.4. Format: functional.
For assay [9], the system named is Rattus norvegicus. Briefly: Inhibition of the IgE-mediated passive cutaneous anaphylaxis (PCA) reaction in rat after oral administration; Inactive. It is filed as functional, organism-based.
The subject of assay [10] is Rattus norvegicus. Briefly: Inhibition of the IgE-mediated passive cutaneous anaphylaxis (PCA) reaction in rat after oral administration; Range 0.3-10.04. It is filed as functional.
For assay [11], the system named is Rattus norvegicus. Briefly: Inhibition of the IgE-mediated passive cutaneous anaphylaxis (PCA) reaction in rat after oral administration; Range 0.54-0.9. It is filed as functional.
Assay [12] has as its system Rattus norvegicus. The assay can be described thus: Inhibition of the IgE-mediated passive cutaneous anaphylaxis (PCA) reaction in rat after intravenous administration; Range 0.057-0.091. It is filed as functional.
Assay [13] concerns Rattus norvegicus. Briefly: Inhibition of the IgE-mediated passive cutaneous anaphylaxis (PCA) reaction in rat after intravenous administration; Range 0.05-0.11. It is filed as functional.
In assay [14] the test system is Rattus norvegicus. Briefly: Inhibition of the IgE-mediated passive cutaneous anaphylaxis (PCA) reaction in rat after oral administration; Inactive(50% inhibition at 10 mg/kg). Format: functional.
The subject of assay [15] is Rattus norvegicus. The assay can be described thus: Inhibition of the IgE-mediated passive cutaneous anaphylaxis (PCA) reaction in rat after intravenous administration; Range 0.021-0.03. Format: functional.
The test system of assay [16] is Rattus norvegicus. Briefly: Inhibition of the IgE-mediated passive cutaneous anaphylaxis (PCA) reaction in rat after oral administration; Inactive at 10 mg/kg. Format: functional, organism-based. The arrangement: dose 10 mg/kg.
Assay [17] concerns Rattus norvegicus. Briefly: Inhibition of the IgE-mediated passive cutaneous anaphylaxis (PCA) reaction in rat after oral administration; Range 0.026-0.31. Format: functional.
The test system of assay [18] is Rattus norvegicus. Briefly: Inhibition of the IgE-mediated passive cutaneous anaphylaxis (PCA) reaction in rat after intravenous administration; Range 0.023-0.11. Format: functional.
Assay [19] deals with Rattus norvegicus. The assay can be described thus: Inhibition of the IgE-mediated passive cutaneous anaphylaxis (PCA) reaction in rat after intravenous administration; Inactive. It is filed as functional, organism-based.
Assay [20] deals with Rattus norvegicus. Briefly: Inhibition of the IgE-mediated passive cutaneous anaphylaxis (PCA) reaction in rat after intravenous administration; Range 0.022-0.04. It is filed as functional.
In assay [21] the test system is Rattus norvegicus. The assay can be described thus: Inhibition of the IgE-mediated passive cutaneous anaphylaxis (PCA) reaction in rat after oral administration; NA means inactive 1 and 10 mg/kg. Also on record: dose 10 mg/kg. Format: functional, organism-based.
Assay [22] relates to Rattus norvegicus. The assay can be described thus: Inhibition of the IgE-mediated passive cutaneous anaphylaxis (PCA) reaction in rat after intravenous administration; Range 0.05-0.15. Format: functional.
The test system of assay [23] is Rattus norvegicus. The assay can be described thus: Inhibition of the IgE-mediated passive cutaneous anaphylaxis (PCA) reaction in rat after intravenous administration; NA means inactive. Format: functional, organism-based.
Assay [24] deals with Rattus norvegicus. The assay can be described thus: Inhibition of the IgE-mediated passive cutaneous anaphylaxis (PCA) reaction in rat after intravenous administration; Range 2.91-4.95. It is filed as functional.

Calls of active or inactive are those of the source. No cut-off for these calls is given here.

Turning to `O=C(O)c1cn2ccc3ccccc3c2n1`, the ED50 result with Rattus norvegicus [1] was “inactive”.

Regarding `NC(=O)c1cn2c(ccc3ccccc32)n1`, the ED50 entry with Rattus norvegicus [2] was “inactive”.

For the compound `c1ccc2c(c1)ncc1nc(-c3nn[nH]n3)cn12`, the ED50 with Rattus norvegicus [3] amounted to 0.089 mg/kg; in the assay with Rattus norvegicus [4], 0.012 mg/kg.

Take `O=C(O)c1cc2ccc3ccccc3n2c1`: the ED50 entry in the assay on Rattus norvegicus [5] is “inactive”.

For the compound `c1ccc2c(c1)OCc1nc(-c3nn[nH]n3)cn1-2`, in the assay with Rattus norvegicus [2], the ED50 result is “inactive”.

As to `O=C(O)c1cn2c(cc(-c3ccccc3)c3ccccc32)n1`, the ED50 entry in the assay on Rattus norvegicus [6] is “inactive”.

Turning to `O=C(O)c1cn2c(n1)c(-c1ccccc1)cc1ccccc12`, the ED50 result with Rattus norvegicus [5] is “inactive”.

Consider `CC1Oc2ccccc2-n2cc(C(=O)O)nc21` (stereo not drawn), for which the ED50 with Rattus norvegicus [7] was 1.76 mg/kg; with Rattus norvegicus [8], 8.46 mg/kg.

On to `CCOC(=O)c1cn2c(cnc3cc(Cl)c(Cl)cc32)n1`, for which the ED50 result in the assay on Rattus norvegicus [2] was “inactive”.

In the case of `Cc1c(C(=O)O)nc2cc(Cl)c3ccccc3n12`, in the assay with Rattus norvegicus [6], the ED50 entry is “inactive”.

On to `CCOC(=O)c1cn2c(n1)c(C#N)cc1ccccc12`, for which the ED50 result in the assay on Rattus norvegicus [2] is “inactive”.

As to `O=C(O)c1nc(Cc2ccccc2)n2c1c(O)nc1ccccc12`, the ED50 result in the assay with Rattus norvegicus [6] is “inactive”.

With `CCOC(=O)c1cn2c3ccccc3c(=O)n(CC)c2n1`, the ED50 entry with Rattus norvegicus [9] is “inactive”.

Consider `c1ccc2c(c1)OCc1nc(CN3CCCCC3)cn1-2`, for which, in the assay with Rattus norvegicus [1], the ED50 result is “inactive”.

Compound `CCOC(=O)c1cn2c(cc(Cl)c3ccc(Cl)cc32)n1` returned an ED50 in the assay on Rattus norvegicus [10] of 1.49 mg/kg.

As for `O=C(O)c1cn2c(cnc3ccccc32)n1` [DAZOQUINAST], the ED50 in the assay with Rattus norvegicus [11] is 0.13 mg/kg; in the assay with Rattus norvegicus [12] it was 0.073 mg/kg.

As to `CCn1c(=O)c2nc(CO)cn2c2ccccc21`, it took a dose of 0.071 mg/kg to reach the 50% effect level with Rattus norvegicus [13] (ED50).

As to `CS(=O)(=O)c1ccc2ccc3nc(C(=O)O)cn3c2c1`, the inhibition in vivo at 10 mg/kg with Rattus norvegicus [14] came out at 50%. It took a dose of 0.028 mg/kg to reach the 50% effect level with Rattus norvegicus [15] (ED50).

Turning to `O=C(O)c1cn2c(n1)c(O)nc1cc(Cl)c(Cl)cc12`, the ED50 result in the assay with Rattus norvegicus [16] is “inactive”.

`O=Cc1cn2c(ccc3ccccc32)n1` returned an ED50 in the assay on Rattus norvegicus [17] of 0.093 mg/kg.

Take `O=C(O)c1cnc2n1-c1ccccc1OC2`: the ED50 entry with Rattus norvegicus [1] is “inactive”.

In the assay with Rattus norvegicus [18], `CSc1cc2nc(C(=O)O)cn2c2ccccc12` came in with an ED50 of 0.046 mg/kg.

Turning to `CCn1c(=O)c2c(C(=O)OC)c(C(=O)O)cn2c2ccccc21`, the ED50 result with Rattus norvegicus [19] is “inactive”.

For the compound `O=C(O)c1cn2c(cc(-c3ccccc3)c3cc(Cl)ccc32)n1`, the ED50 result with Rattus norvegicus [6] is “inactive”.

Turning to `CCn1c(=O)c2cc(C(=O)O)cn2c2cc(C)c(C)cc21`, the ED50 in the assay with Rattus norvegicus [20] stood at 0.03 mg/kg.

For the compound `COc1ccc2ccc3nc(C(N)=O)cn3c2c1`, the ED50 result with Rattus norvegicus [6] is “inactive”.

As to `N#Cc1cn2c(n1)COc1ccccc1-2`, in the assay with Rattus norvegicus [21], the ED50 entry was “inactive”.

`CCc1ccc2c(Cl)cc3nc(C(=O)O)cn3c2c1` returned an ED50 in the assay on Rattus norvegicus [22] of 0.09 mg/kg.

In the case of `COC(=O)c1nc2n(c1CO)-c1ccccc1OC2`, in the assay on Rattus norvegicus [2], the ED50 entry was “inactive”.

In the case of `O=C(O)c1cn2c(n1)c(CO)cc1ccccc12`, in the assay with Rattus norvegicus [5], the ED50 entry was “inactive”.

Take `CCn1c(=O)c2ccccc2n2cc(C(=O)O)nc12`: the ED50 result in the assay with Rattus norvegicus [23] is “inactive”.

`COC(=O)c1nnn2c1c(=O)oc1ccccc12`: 10 mg/kg produced 50% inhibition in vivo in the assay with Rattus norvegicus [14].

As for `O=C(O)c1cc2c(ccc3ccccc32)s1`, the ED50 result in the assay on Rattus norvegicus [5] is “inactive”.

Consider `O=C(O)c1cn2c(ccc3c(Cl)cccc32)n1`, for which the ED50 in the assay on Rattus norvegicus [24] turned out to be 3.74 mg/kg.

Broadly, the ED50 is the midpoint of the dose-response relation. For orientation: inhibition in vivo means the share of the control response that was lost under treatment. Low values mean a weak effect, high ones a strong effect.
